{"source": "paper PMC12692291", "about": "“Development and In Vitro Evaluation of [^64Cu]Cu-NOTA-TP-PSMA, a Novel Radiotheranostic Agent Against Prostate Cancer” (International Journal of Molecular Sciences, 2025)", "key": {"[1]": {"tested_on": "LNCaP cells", "assay": "Efflux (retention) study in LNCaP cells", "assay_type": "cell-based", "settings": "Table S3 first part (LNCaP)", "procedure": "(§1) Efflux studies were conducted by incubating the cells with the compound for an initial period of 1 h, after which the incubation medium was replaced with fresh, compound-free medium. The retained intracellular radioactivity was then measured at various time points up to 24 h and expressed as the percentage of retention relative to the 0-h time point, defined as the time immediately after medium replacement."}, "[2]": {"tested_on": "HEK-293 cells", "assay": "PrestoBlue cytotoxicity assay in HEK-293 cells", "assay_type": "cell-based, human", "settings": "consistently across time points; read-out: EC50 in HEK-293 cells", "procedure": "(§2) The cytotoxicity of compounds 1–3, ^natCu-NOTA-TP-PSMA, and cisplatin (platinum-based drug) were assessed with PrestoBlue, a resazurin-based method to assess mitochondrial function in LNCaP and HEK-293 cells at 24, 48, and 72 h. Effective concentration (EC50) values summarized in Table 3 were calculated from the dose–response curves of each compound (Figure S7).\n(§3) Cytotoxicity was evaluated using a resazurin-based assay (PrestoBlue) in 96-well plates. LNCaP (15,000 cells/well) and HEK-293 (10,000 cells/well) were seeded and incubated for 72 h. Cells were then treated with serial dilutions of [^64Cu]Cu-NOTA-TP-PSMA and controls for 24, 48, or 72 h. After treatment, cells were rinsed with PBS and incubated with PrestoBlue reagent for 40 min. Fluorescence was measured at 570 nm (excitation) and 610 nm (emission). Background readings from blank wells were subtracted. Cell viability was calculated relative to untreated controls. IC50 values were determined using dose–response curves. Controls included [^64Cu]Cu-NOTA-TP, [^64Cu]Cu-NOTA-PSMA, ^natCu-NOTA-TP-PSMA, and cisplatin (0–500 µM in 0.9% saline). All assays were performed in triplicate and all data presented in Results are the average of three independent experiments. TP conjugates were dissolved in 1% DMSO and diluted in saline. Inhibitory concentration 50 (IC50) values were calculated to quantify the effectiveness of the compounds."}, "[3]": {"tested_on": "LNCaP cells", "assay": "Nuclear localization in LNCaP cells", "assay_type": "cell-based", "procedure": "To assess nuclear localization, LNCaP and HEK-293 cells were incubated with 1 MBq of [^64Cu]Cu-NOTA-TP-PSMA 1 for 24, 48, and 72 h. Nuclear extraction was performed following a previously established protocol. Following incubation, cells were lysed and fractionated using cytoskeletal buffer to isolate nuclear components. Nuclear and cytoplasmic radioactivity were measured using a HIDEX automatic gamma counter. Data were used to evaluate time-dependent nuclear accumulation of the tracer."}, "[4]": {"tested_on": "HEK-293 cells", "assay": "Efflux (retention) study in HEK-293 cells", "assay_type": "cell-based, human", "settings": "Table S3 second part (HEK-293)", "procedure": "as §1"}, "[5]": {"assay": "In vitro plasma stability and plasma protein binding", "assay_type": "in vitro ADME", "settings": "mouse plasma, 37 °C, 24 h", "procedure": "The in vitro plasma stability of [^64Cu]Cu-NOTA-TP-PSMA 1 was evaluated by incubating […] of the radiolabeled compound (in 250 μL PBS) with 250 μL of freshly collected mouse plasma at 37 °C for up to 24 h. At predefined time points, (1 h, 4 h and 24 h) plasma proteins were precipitated by adding ethanol (1:1, v/v) in two successive steps, followed by vortexing (1 min) and centrifugation at 7000 rpm for 10 min. The resulting supernatant was subjected to ultracentrifugation to ensure complete removal of particulate matter.\nFor assessment of in vitro stability, the clarified supernatant was analyzed by radio-instant thin-layer chromatography (radio-iTLC) on C18 silica gel plates, using 0.1 M sodium citrate buffer (pH 5.5) as the mobile phase. Radiodetection was performed using an Instant Imager system (BioScan, Washington, DC, USA). Free [^64Cu]Cu(OAc)2 and intact [^64Cu]Cu-NOTA-TP-PSMA served as controls to facilitate peak identification. Under these chromatographic conditions, the radiolabeled complex remained at the origin, while free copper migrated with the solvent front (Figure S5).\nTo quantify the extent of protein binding, radioactivity in both the protein pellet and the supernatant was measured using a dose calibrator. The percentage of protein-bound radioactivity was calculated by comparing the activity in the precipitated fraction relative to the total recovered activity. […]"}, "[6]": {"tested_on": "LNCaP cells", "assay_type": "cell-based", "settings": "LNCaP, 24 h", "procedure": "as §2, §3"}, "[7]": {"tested_on": "HEK-293 cells", "assay": "Cellular uptake and internalization in HEK-293 cells", "assay_type": "cell-based, human"}}}
{"molecule": "O=C(O)CC[C@H](NC(=O)N[C@@H](CCCCNC(=O)[C@@H](Cc1ccc2ccccc2c1)NC(=O)C1CCC(CNC(=O)C(CCCCNC(=O)c2cc3[n+]4c(c2)-c2cccc[n+]2[Pt-2]4([Cl])[n+]2ccccc2-3)NC(=O)COCCOCCNC(=O)CN2CCN3CCN(CC2)CC(=O)[O][64Cu][O]C(=O)C3)CC1)C(=O)O)C(=O)O", "note": "(stereo partly drawn) [[^64Cu]Cu-NOTA-TP-PSMA 1]", "values": [{"measurement": "Retained activity", "setting": "[1]; 0 h after medium replacement", "result": "100 ± 0", "unit": "%CPM/106 cells"}, {"measurement": "Retained activity", "setting": "[1]; 1 h", "result": "85.36 ± 11.10", "unit": "%CPM/106 cells"}, {"measurement": "Retained activity", "setting": "[1]; 2 h", "result": "71.36 ± 13.48", "unit": "%CPM/106 cells"}, {"measurement": "Retained activity", "setting": "[1]; 4 h", "result": "67.8 ± 9.3", "unit": "%CPM/106 cells"}, {"measurement": "Retained activity", "setting": "[1]; 24 h", "result": "51.7 ± 9.4", "unit": "%CPM/106 cells"}, {"measurement": "EC50", "setting": "[2]", "result": "> 250", "unit": "nM"}, {"measurement": "nuclear uptake fold difference LNCaP vs HEK-293", "setting": "[3]; 24 h", "result": 84, "unit": "fold"}, {"measurement": "nuclear uptake in LNCaP cells", "setting": "[3]; 24 h", "result": "~ 7 % CPM/10^6 cells"}, {"measurement": "nuclear uptake fold difference LNCaP vs HEK-293", "setting": "[3]; 48 h", "result": 36, "unit": "fold"}, {"measurement": "nuclear uptake fold difference LNCaP vs HEK-293", "setting": "[3]; 72 h", "result": 1.8, "unit": "fold"}, {"measurement": "fold higher nuclear uptake than monomer 2", "setting": "[3]; LNCaP, 24 h", "result": "~ 13 fold"}, {"measurement": "fold higher nuclear uptake than monomer 3", "setting": "[3]; LNCaP, 24 h", "result": "~ 16 fold"}, {"measurement": "Nuclear uptake LNCaP", "setting": "[3]; Table S4, 24 h", "result": "6.96 ± 1.97", "unit": "%ID/10⁶ cells"}, {"measurement": "Nuclear uptake LNCaP", "setting": "[3]; Table S4, 48 h", "result": "5.66 ± 2.09", "unit": "%ID/10⁶ cells"}, {"measurement": "Nuclear uptake LNCaP", "setting": "[3]; Table S4, 72 h", "result": "1.53 ± 0.38", "unit": "%ID/10⁶ cells"}, {"measurement": "Retained activity", "setting": "[4]; 0 h after medium replacement", "result": "100 ± 0", "unit": "%CPM/106 cells"}, {"measurement": "Retained activity", "setting": "[4]; 1 h", "result": "97.8 ± 4.3", "unit": "%CPM/106 cells"}, {"measurement": "Retained activity", "setting": "[4]; 2 h", "result": "62.6 ± 18.6", "unit": "%CPM/106 cells"}, {"measurement": "Retained activity", "setting": "[4]; 4 h", "result": "41.5 ± 9.9", "unit": "%CPM/106 cells"}, {"measurement": "Retained activity", "setting": "[4]; 24 h", "result": "17.1 ± 1.9", "unit": "%CPM/106 cells"}, {"measurement": "free 64Cu2+ in protein-free supernatant (radio-iTLC)", "setting": "[5]", "result": "no evidence of free ^64Cu^2+"}, {"measurement": "total radioactivity bound to plasma proteins", "setting": "[5]", "result": "approximately 91%"}, {"measurement": "fold more potent than monomer 2", "setting": "[6]", "result": "~ 5 fold"}, {"measurement": "fold more potent than monomer 3", "setting": "[6]", "result": "~ 16 fold"}, {"measurement": "Internalization", "setting": "[7]; HEK-293, 24 h", "result": "7.6 ± 1.7", "unit": "% CPM/10^6 cells"}, {"measurement": "Uptake", "setting": "[7]; HEK-293, 24 h", "result": "8.30 ± 1.63", "unit": "%CPM/10^6 cells"}, {"measurement": "Internalization HEK-293", "setting": "[7]; Table S2, 1 h", "result": "4.46 ± 6.12", "unit": "%ID/10⁶ cells"}, {"measurement": "Uptake HEK-293", "setting": "[7]; Table S2, 1 h", "result": "3.15 ± 0.53", "unit": "%ID/10⁶ cells"}, {"measurement": "Internalization HEK-293", "setting": "[7]; Table S2, 2 h", "result": "3.34 ± 1.41", "unit": "%ID/10⁶ cells"}, {"measurement": "Uptake HEK-293", "setting": "[7]; Table S2, 2 h", "result": "3.78 ± 0.95", "unit": "%ID/10⁶ cells"}, {"measurement": "Internalization HEK-293", "setting": "[7]; Table S2, 4 h", "result": "3.26 ± 0.44", "unit": "%ID/10⁶ cells"}, {"measurement": "Uptake HEK-293", "setting": "[7]; Table S2, 4 h", "result": "5.27 ± 1.00", "unit": "%ID/10⁶ cells"}, {"measurement": "Internalization HEK-293", "setting": "[7]; Table S2, 20 h", "result": "6.12 ± 0.88", "unit": "%ID/10⁶ cells"}, {"measurement": "Uptake HEK-293", "setting": "[7]; Table S2, 20 h", "result": "8.00 ± 2.25", "unit": "%ID/10⁶ cells"}, {"measurement": "Internalization HEK-293", "setting": "[7]; Table S2, 24 h", "result": "7.65 ± 1.67", "unit": "%ID/10⁶ cells"}, {"measurement": "Uptake HEK-293", "setting": "[7]; Table S2, 24 h", "result": "8.30 ± 1.63", "unit": "%ID/10⁶ cells"}]}
